Assay results taken from US5925678A, “Use of N-acyl derivatives of aminoalcohols in the manufacture of a medicament for practicing neuroprotective action in neuropathological states connected with excitotoxicity” (Lifegroup S.P.A., priority 1994, dated 1999).
Where a name gives a salt, the structure may show the parent alone. Read-outs that look alike come from different tables or passages of the source. Values belong to the compound of their own block, whether it stands above or below them.

Experiments:
[1] = system: Granular cell cultures from mouse cerebellum exposed to Glu; test: Neuroprotective effect against excitotoxicity of Glu in primary neuronal cultures (cell survival, MTT); type: cell-based; conditions: 24 h
Method: In vitro evaluation of the neuroprotective effect against excitotoxicity of Excitatory Amino Acids in primary neuronal cultures of the following compounds was carried out:
The compounds under evaluation, referred to as a, b, c, and d, were solubilized in DMSO and culture medium to obtain concentrations of 100 μM (4% DMSO) and 60 μM (3% DMSO) and added to the culture mediums according to different treatment schedules in order to determine the time-effect relationship vs. the incubation time and the exposure to the neurotoxic stimulus.
Granular cell cultures were obtained from postnatal day 8-9 mouse Balb-6 cerebellum. The cells were suspended in EBM+2 mM L-glutamine, 100 U/ml penicillin, […], 25 mM KCl and 10% fetal calf serum, plated on polylysine substrate, cultured for 8-10 days and then exposed to Glu 500 μM at room temperature for 5 min. The compounds being evaluated were added to the cultures at the same time of exposure, soon after exposure or 15 min after exposure to Glu, and cultured for 60 minutes; cultures were then washed and brought back to the original medium. The number of survived cells was evaluated by […] method (MTT) 24 hours after excitotoxic stimulation.

Solubility in water = type: physicochemical
[2] = Solubility in organic solvents; type: physicochemical; conditions: for solubility: organic solvent or mixture
[3] = A: compound added at the same time of exposure to Glu (500 μM, 5 min), 60 μM, % of control values, average of three tests, Glu alone 44, read-out: survived cells (%), treatment A, 60 μM
[4] = A: compound added at the same time of exposure to Glu (500 μM, 5 min), % of control values, average of three tests, Glu alone 40, read-out: survived cells (%), treatment A, 100 μM
[5] = B: compound added soon after exposure to Glu (500 μM, 5 min), % of control values, average of three tests, Glu alone 40, read-out: survived cells (%), treatment B, 100 μM
[6] = C: compound added 15 min after exposure to Glu (500 μM, 5 min), 60 μM, % of control values, average of three tests, Glu alone 44, read-out: survived cells (%), treatment C, 60 μM
[7] = C: compound added 15 min after exposure to Glu (500 μM, 5 min), % of control values, average of three tests, Glu alone 40, read-out: survived cells (%), treatment C, 100 μM
[8] = n-octanol, read-out: solubility in n-octanol
[9] = dmso, read-out: solubility in DMSO
[10] = aqueous buffer, 50 mM phosphate buffer, pH 7.4, NaCl 0.9%, read-out: solubility in water: 50 mM phosphate buffer

solubility in water (Solubility in water; water): insoluble
solubility in organic solvents [2]: hot methanol, CH3 Cl, DMSO
SMILES: CCCCCCCCCCCCCCCC(=O)NCCO [Example 1, N-(2-Hydroxyethyl)-Palmitoylamide]
viability at 60 µM [1, 3]: 86%
viability at 100 µM [1, 4]: 67%
viability at 100 µM [1, 5]: 84%
viability at 60 µM [1, 6]: 101%
viability at 100 µM [1, 7]: 76%

solubility (Solubility in water; [10]): > 1000 µg/mL
solubility in water (Solubility in water; water): poorly soluble
solubility [2, 9]: > 10000 µg/mL
SMILES: CCCCCCCCCCCCCCCC(=O)NCCOP(=O)(O)O [Example 5, N-Palmitoylethanolamide Phosphate]
viability at 60 µM [1, 3]: 68%
viability at 60 µM ([1]; B: compound added soon after exposure to Glu (500 μM, 5 min), 60 μM, % of control values, average of three tests, Glu alone 44, read-out: survived cells (%), treatment B, 60 μM): 99%
viability at 60 µM [1, 6]: 90%

solubility in water (Solubility in water; water): poorly soluble
solubility (Solubility in water; water, as potassium salt, read-out: solubility in water as potassium salt): > 1000 µg/mL
solubility [2, 9]: > 5000 µg/mL
SMILES: CCCCCCCCCCCCCCCC(=O)NCCOC(=O)CCC(=O)O [Example 7, N-(2-Hydroxyethyl)-Palmitoylamide Succinate Acid]

solubility (Solubility in water; [10]): > 1000 µg/mL
solubility in water (Solubility in water; water): poorly soluble
solubility [2, 9]: > 10000 µg/mL
SMILES: O=C(O)CCC(=O)OCCNC(=O)C=CCCCCCCCCC(=O)NCCOC(=O)CCC(=O)O [Example 8, N,N'-Bis(2-Hydroxyethyl)-Dodecenediamide Disuccinate Acid]

solubility [2, 9]: > 10000 µg/mL
SMILES: O=C(CCCCCCCC(=O)NCCO)NCCO [Example 9, N,N'-Bis-(2-Hydroxyethyl)-Nonandiamide]
viability at 100 µM [1, 4]: 68%
viability at 100 µM [1, 5]: 92%
viability at 100 µM [1, 7]: 87%

Second part, the compound before the results:

SMILES: CCCCCCCCCCCCCCCC(=O)NCCOC(C)=O [Example 2, N-(2-Acetoxyethyl)-Palmitoylamide]
solubility in water (Solubility in water; water): poorly soluble
solubility [2, 8]: > 5000 µg/mL

SMILES: CC(=O)OCCNC(=O)c1ccccc1 [Example 3, N-(2-Acetoxyethyl)-Benzoylamide]
solubility in water (Solubility in water; water): poorly soluble
solubility [2, 9]: > 10000 µg/mL
solubility [2, 8]: > 10000 µg/mL

SMILES: CC(=O)OCCNC(=O)/C=C/C(=O)NCCOC(C)=O [Example 4, N,N'-Bis(2-Acetoxyethyl)-Fumaroylamide]
solubility in water (Solubility in water; water): poorly soluble
solubility [2, 9]: > 10000 µg/mL

SMILES: O=C(/C=C/CCCCCCCCC(=O)NCCOP(=O)(O)O)NCCOP(=O)(O)O [Example 6, N,N'-Bis(2-Hydroxyethyl)-Dodecenediamide Diphosphate Disodium Salt]
solubility (Solubility in water; water, read-out: solubility in water): > 10000 µg/mL
solubility ([2]; DMSO, product in acid form, read-out: solubility in DMSO (product in acid form)): > 10000 µg/mL

SMILES: CCCCC/C=C\C/C=C\C/C=C\C/C=C\CCCC(=O)NCCO [Example 10, N-(2-Hydroxyethyl)-Arachidonamide]
viability at 60 µM ([1]; read-out: survived cells (%), treatment A, 60 μM): 95%
solubility in water (Solubility in water; water): poorly soluble
solubility [2, 9]: > 10000 µg/mL
solubility ([2]; ethanol, read-out: solubility in ethanol): > 10000 µg/mL

SMILES: N[C@@H](CCC(=O)O)C(=O)O [Glu, glutamic acid, reference compound]
viability at 500 µM ([1]; read-out: survived cells (%), Glu alone, 60 μM column): 44%
viability at 500 µM ([1]; read-out: survived cells (%), Glu alone, 100 μM column): 40%
